Key:
SNU16 cells = test: SNU16 Cancer Cell Line Proliferation Assay; type: cell-based; settings: Homo sapiens; SNU-16 cells
How it was run: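 SNU16 cells were seeded, held 24 h at 37 degrees, then dosed with an 11-point 3-fold dilution series prepared from a 10 mM DMSO stock. After 96 h incubation, viability was read by CellTiter Glo luminescence.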

FGFR2 = FGFR2 (Homo sapiens (Human), UniProt P21802); test: FGFR2 Biochemical Caliper Assay
Description: Compounds of the present invention were also tested in a FGFR2 Biochemical Caliper Assay. Compounds were prepared in 10 mM DMSO solution and serially diluted into 11 concentrations by 3-fold dilution. […] 5 uL of ATP solution (100 uM) was added to start the reaction and the plate was incubated for 90 minutes, then 70 uL of stopping buffer (0.5M EDTA) was added to terminate the reaction. Each well was analyzed using EZ reader.

Chain of FGFR2 (P21802 22-821): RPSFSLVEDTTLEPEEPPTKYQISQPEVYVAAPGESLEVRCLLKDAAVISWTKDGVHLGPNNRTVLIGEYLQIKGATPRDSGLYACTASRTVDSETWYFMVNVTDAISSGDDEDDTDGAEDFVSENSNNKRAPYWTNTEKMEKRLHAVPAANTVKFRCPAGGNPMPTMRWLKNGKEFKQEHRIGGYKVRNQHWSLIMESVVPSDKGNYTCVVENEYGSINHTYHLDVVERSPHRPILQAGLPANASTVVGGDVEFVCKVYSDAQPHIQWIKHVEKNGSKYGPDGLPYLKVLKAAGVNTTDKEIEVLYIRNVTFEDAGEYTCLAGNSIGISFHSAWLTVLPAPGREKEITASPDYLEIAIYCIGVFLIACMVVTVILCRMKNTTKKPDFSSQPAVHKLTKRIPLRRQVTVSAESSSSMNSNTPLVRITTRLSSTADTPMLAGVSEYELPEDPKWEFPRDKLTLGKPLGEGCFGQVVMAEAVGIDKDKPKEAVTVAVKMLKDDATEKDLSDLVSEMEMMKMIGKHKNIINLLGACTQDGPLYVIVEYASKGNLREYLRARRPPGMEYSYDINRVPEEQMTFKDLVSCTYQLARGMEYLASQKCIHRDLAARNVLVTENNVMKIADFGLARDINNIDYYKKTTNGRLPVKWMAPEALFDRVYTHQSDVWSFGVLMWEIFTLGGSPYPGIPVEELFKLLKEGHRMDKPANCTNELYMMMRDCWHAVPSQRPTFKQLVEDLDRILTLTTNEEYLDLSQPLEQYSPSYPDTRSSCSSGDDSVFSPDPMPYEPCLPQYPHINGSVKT

IC50 (SNU16 cells)	IC50 (FGFR2)	Compound
1 to 100 µM	1 to 100 µM	C=CC(=O)N1CCC(c2c(-c3ccc(Oc4ncccn4)c(OC)c3)c3c(N)ncnc3n2C)C1 (centres unmarked) [Example 687]
1 to 100 µM	1 to 100 µM	C=C(C)C(=O)N1CC=C(c2c(-c3ccc(Oc4ncccn4)cc3)c3c(N)ncnc3n2C)C1 [Example 688]
≤ 0.1 µM	< 0.1 µM	C=CC(=O)N1CCC(c2c(-c3ccc(Oc4ccccn4)cc3)c3c(N)ncnc3n2C)C1 (centres unmarked) [Example 689]
≤ 0.1 µM	< 0.1 µM	C=CC(=O)N1CC=C(c2c(-c3ccc(Oc4cccc(CC)n4)c(OC)c3)c3c(N)ncnc3n2C)CC1 [Example 690]
1 to 100 µM	0.25 to 1 µM	C=C(C)C(=O)N1CCC(c2c(-c3ccc(Oc4cccc(C)n4)cc3)c3c(N)ncnc3n2C)C1 (centres unmarked) [Example 691]
1 to 100 µM	1 to 100 µM	C/C=C/C(=O)N1CCC(c2c(-c3ccc(Oc4cccc(C)n4)cc3)c3c(N)ncnc3n2C)C1 (centres unmarked) [Example 692]
1 to 100 µM	0.25 to 1 µM	C=C(C)C(=O)N1CCC(c2c(-c3ccc(Oc4cccc(C)n4)cc3)c3c(N)ncnc3n2C)CC1 [Example 693]
0.25 to 1 µM	0.25 to 1 µM	C/C=C/C(=O)N1CCC(c2c(-c3ccc(Oc4cccc(C)n4)cc3)c3c(N)ncnc3n2C)CC1 [Example 694]
≤ 0.1 µM	0.1 to 0.25 µM	CC#CC(=O)N1CCC(c2c(-c3ccc(Oc4cccc(C)n4)cc3)c3c(N)ncnc3n2C)CC1 [Example 695]
0.1 to 0.25 µM	0.25 to 1 µM	C=CC(=O)N1CCC(c2c(-c3ccc(Oc4ncccn4)cc3)c3c(N)ncnc3n2C)CC1 [Example 696]
≤ 0.1 µM	0.1 to 0.25 µM	CC#CC(=O)N1CCC(c2c(-c3ccc(Oc4cccc(C)n4)cc3)c3c(N)ncnc3n2C)C1 (centres unmarked) [Example 699]
0.25 to 1 µM	1 to 100 µM	C=CC(=O)N1CCC(c2c(-c3ccccc3)c3c(N)ncnc3n2C)C1 (centres unmarked) [Example 700]
≤ 0.1 µM	< 0.1 µM	C=CC(=O)N1CCC(c2c(-c3ccc(Oc4ccccn4)cc3)c3c(N)ncnc3n2C)CC1 [Example 701]
0.1 to 0.25 µM	0.25 to 1 µM	C=CC(=O)N1CCC(c2c(-c3ccc(OC)cc3)c3c(N)ncnc3n2C)C1 (centres unmarked) [Example 702]
≤ 0.1 µM	< 0.1 µM	C=C(C)C(=O)Nc1ccc(-c2[nH]c3ncnc(N)c3c2-c2ccc(Oc3cccc(C)n3)cc2)cc1 [Example 703]
0.1 to 0.25 µM	0.25 to 1 µM	C=CC(=O)N1CCC(c2c(-c3ccc(Oc4ncccn4)cc3)c3c(N)ncnc3n2C2CCOCC2)C1 (centres unmarked) [Example 704]
≤ 0.1 µM	0.1 to 0.25 µM	C=CC(=O)N1CCC(c2c(-c3ccc(Oc4ncccn4)cc3)c3c(N)ncnc3n2CC)C1 (centres unmarked) [Example 705]
≤ 0.1 µM	< 0.1 µM	C=CC(=O)N1CCC(c2c(-c3ccc(Oc4ccc(Cl)cn4)cc3)c3c(N)ncnc3n2C)C1 (centres unmarked) [Example 706]
1 to 100 µM	1 to 100 µM	C=CC(=O)N1CCC(c2c(-c3ccc(Oc4ncccn4)cc3)c3c(N)ncnc3n2CCN(C)C)C1 (centres unmarked) [Example 707]
≤ 0.1 µM	< 0.1 µM	C=CC(=O)N1CCC(c2[nH]c3ncnc(N)c3c2-c2ccc(Oc3ncccn3)cc2)C1 (centres unmarked) [Example 709]
≤ 0.1 µM	< 0.1 µM	C=CC(=O)N1CC[C@@H](c2[nH]c3ncnc(N)c3c2-c2ccc(Oc3ncccn3)cc2)C1 [Example 713]

IC50 (SNU16 cells)	IC50 (FGFR2)	Compound
≤ 0.1 µM	< 0.1 µM	C=CC(=O)N1CCC(c2c(-c3ccc(Oc4ncccn4)cc3)c3c(N)ncnc3n2C2CC(O)C2)C1 (centres unmarked) [Example 714]
1 to 100 µM	1 to 100 µM	C=CC(=O)N1CCC(c2c(-c3cnn(CCN(C)C)c3)c3c(N)ncnc3n2C)C1 (centres unmarked) [Example 715]
≤ 0.1 µM	< 0.1 µM	C=CC(=O)N1CCC(c2c(-c3ccc(OC4CCCC4)cc3)c3c(N)ncnc3n2C)C1 (centres unmarked) [Example 716]
0.25 to 1 µM	1 to 100 µM	C=CC(=O)N1CCC(c2c(-c3ccc(OCCOC)cc3)c3c(N)ncnc3n2C)C1 (centres unmarked) [Example 717]
0.25 to 1 µM	0.25 to 1 µM	C=CC(=O)N1CCC(c2c(-c3ccc(C(=O)N4CCC(F)(F)C4)cc3)c3c(N)ncnc3n2C)C1 (centres unmarked) [Example 718]
≤ 0.1 µM	< 0.1 µM	C=CC(=O)N1CCC(c2c(-c3ccc(N4CCCC4)cc3)c3c(N)ncnc3n2C)C1 (centres unmarked) [Example 719]
1 to 100 µM	1 to 100 µM	C=CC(=O)N1CCC(c2c(-c3ccc(N(C)C(C)=O)cc3)c3c(N)ncnc3n2C)C1 (centres unmarked) [Example 720]
0.25 to 1 µM	0.25 to 1 µM	C=CC(=O)N1CCC(c2c(-c3ccc(COC)cc3)c3c(N)ncnc3n2C)C1 (centres unmarked) [Example 721]
1 to 100 µM	1 to 100 µM	C=CC(=O)N1CCC(c2c(-c3ccc(C(=O)N4CCOCC4)cc3)c3c(N)ncnc3n2C)C1 (centres unmarked) [Example 722]
1 to 100 µM	1 to 100 µM	C=CC(=O)N1CCC(c2c(-c3cnn(CC(F)(F)F)c3)c3c(N)ncnc3n2C)C1 (centres unmarked) [Example 723]
1 to 100 µM	1 to 100 µM	C=CC(=O)N1CCC(c2c(-c3ccc(CN4CC[C@@H](O)C4)cc3)c3c(N)ncnc3n2C)C1 (some centres unmarked) [Example 724]
0.1 to 0.25 µM	< 0.1 µM	C=CC(=O)N1CCC(c2c(-c3ccc(C(=O)Nc4ccccn4)cc3)c3c(N)ncnc3n2C)C1 (centres unmarked) [Example 725]
1 to 100 µM	1 to 100 µM	C=CC(=O)N1CCC(c2c(-c3cnn(C4CCCC4)c3)c3c(N)ncnc3n2C)C1 (centres unmarked) [Example 726]
1 to 100 µM	1 to 100 µM	C=CC(=O)N1CCC(c2c(-c3ccc(C(=O)N4CCC4)c(F)c3)c3c(N)ncnc3n2C)C1 (centres unmarked) [Example 727]
1 to 100 µM	1 to 100 µM	C=CC(=O)N1CCC(c2c(-c3ccc(Oc4ncccn4)cc3)c3c(N)ncnc3n2CCN2CCOCC2)C1 (centres unmarked) [Example 728]
0.1 to 0.25 µM	0.1 to 0.25 µM	C=CC(=O)N1CCC(c2c(-c3ccc(COc4ccccc4)cc3)c3c(N)ncnc3n2C)C1 (centres unmarked) [Example 729]
1 to 100 µM	0.25 to 1 µM	C=CC(=O)N1CC[C@H](c2[nH]c3ncnc(N)c3c2-c2ccc(Oc3ncccn3)cc2)C1 [Example 730]
0.25 to 1 µM	0.25 to 1 µM	C=CC(=O)N1CCC(c2c(-c3ccc(C(=O)N4CCSC4)cc3)c3c(N)ncnc3n2C)C1 (centres unmarked) [Example 731]
1 to 100 µM	0.1 to 0.25 µM	C=CC(=O)N1CCC(c2c(-c3cnn(CC4CCNCC4)c3)c3c(N)ncnc3n2C)C1 (centres unmarked) [Example 732]
0.25 to 1 µM	0.25 to 1 µM	C=CC(=O)N1CCC(c2c(-c3ccc(OCC(F)(F)F)nc3)c3c(N)ncnc3n2C)C1 (centres unmarked) [Example 733]
≤ 0.1 µM	0.1 to 0.25 µM	C=CC(=O)N1CCC(c2c(-c3ccc(OCC4CC4)cc3)c3c(N)ncnc3n2C)C1 (centres unmarked) [Example 734]

IC50 (SNU16 cells)	IC50 (FGFR2)	Compound
0.25 to 1 µM	0.25 to 1 µM	C=CC(=O)N1CCC(c2c(-c3ccc(C(=O)N4CCCC4)cc3)c3c(N)ncnc3n2C)C1 (centres unmarked) [Example 735]
1 to 100 µM	1 to 100 µM	C=CC(=O)N1CCC(c2c(-c3cnn(C4CCOC4)c3)c3c(N)ncnc3n2C)C1 (centres unmarked) [Example 736]
1 to 100 µM	1 to 100 µM	C=CC(=O)N1CCC(c2c(-c3cnn(C(C)C)c3)c3c(N)ncnc3n2C)C1 (centres unmarked) [Example 737]
1 to 100 µM	1 to 100 µM	C=CC(=O)N1CCC(c2c(-c3ccc(Oc4ncccn4)cc3)c3c(N)ncnc3n2CCN2CCN(C)CC2)C1 (centres unmarked) [Example 738]
≤ 0.1 µM	0.1 to 0.25 µM	C=CC(=O)N1CCC(c2c(-c3ccc(Oc4ncc(Cl)cn4)cc3)c3c(N)ncnc3n2C)C1 (centres unmarked) [Example 739]
1 to 100 µM	1 to 100 µM	C=CC(=O)N1CC[C@@H](c2c(-c3ccc(Oc4ncccn4)cc3)c3c(N)ncnc3n2CCN2CCOCC2)C1 [Example 740]
1 to 100 µM	1 to 100 µM	C=CC(=O)N1CC[C@H](c2c(-c3ccc(Oc4ncccn4)cc3)c3c(N)ncnc3n2CCN2CCOCC2)C1 [Example 741]
1 to 100 µM	1 to 100 µM	C=CC(=O)N1CCC(c2c(-c3cnn(C4CCNCC4)c3)c3c(N)ncnc3n2C)C1 (centres unmarked) [Example 742]
1 to 100 µM	0.25 to 1 µM	C=CC(=O)N1CCC(c2c(-c3cnn(C4CCN(C)CC4)c3)c3c(N)ncnc3n2C)C1 (centres unmarked) [Example 743]
≤ 0.1 µM	< 0.1 µM	C=CC(=O)N1CCC(c2[nH]c3ncnc(N)c3c2-c2ccc(Oc3cccc(C)n3)cc2)C1 (centres unmarked) [Example 744]
1 to 100 µM	1 to 100 µM	C=CC(=O)N1CCC(c2c(-c3ccc(Oc4ccc(Cl)c(C)n4)cc3)c3c(N)ncnc3n2C)C1 (centres unmarked) [Example 745]
0.25 to 1 µM	< 0.1 µM	C=CC(=O)N1CCC(c2[nH]c3ncnc(N)c3c2-c2ccc(C(=O)N3CCCC3)cc2)C1 (centres unmarked) [Example 746]
≤ 0.1 µM	< 0.1 µM	CC#CC(=O)N1CCC(c2c(-c3ccc(C(=O)N4CCCC4)cc3)c3c(N)ncnc3n2C)C1 (centres unmarked) [Example 747]
0.25 to 1 µM	0.1 to 0.25 µM	C=CC(=O)N1CCC(c2c(-c3ccc(OCc4ccccc4)cc3)c3c(N)ncnc3n2C)C1 (centres unmarked) [Example 748]
≤ 0.1 µM	< 0.1 µM	C=CC(=O)N1CCC(c2c(-c3ccc(SC4CCCC4)cc3)c3c(N)ncnc3n2C)C1 (centres unmarked) [Example 749]
≤ 0.1 µM	< 0.1 µM	C=CC(=O)N1CCC(c2c(-c3ccc(C(=O)N4CCCCC4)cc3)c3c(N)ncnc3n2C)C1 (centres unmarked) [Example 750]
0.1 to 0.25 µM	0.25 to 1 µM	C=CC(=O)N1CCC(c2c(-c3ccc(C4CCOCC4)cc3)c3c(N)ncnc3n2C)C1 (centres unmarked) [Example 751]
1 to 100 µM	1 to 100 µM	C=CC(=O)N1CCC(c2c(-c3ccc(CN4CCC(C)(C)C4)cc3)c3c(N)ncnc3n2C)C1 (centres unmarked) [Example 753]
1 to 100 µM	< 0.1 µM	C=CC(=O)N1CCC(c2c(-c3ccc(NC(=O)NC4CC4)cc3)c3c(N)ncnc3n2C)C1 (centres unmarked) [Example 755]

Source: patent publication US11780845B2 (Relay Therapeutics, Inc., priority 2019, dated 2023)
